Where a name gives a salt, the structure may show the parent alone. Read-outs that look alike come from different tables or passages of the source.
What was measured:
[1] = tested on: Moraxella catarrhalis; test: MIC determination (Table 6); assay type: cell-based
[2] = tested on: Streptococcus pneumoniae (R6); test: MIC determination, microbroth dilution; assay type: cell-based
[3] = tested on: Enterococcus faecalis (ATCC 33186); test: MIC determination, microbroth dilution; assay type: cell-based
[4] = tested on: MRSA, Staphylococcus aureus (NRS70); test: MIC determination, microbroth dilution; assay type: cell-based; details: read-out: MIC MRSA
[5] = tested on: Haemophilus influenza (ATCC 49247); test: microbe, parasite or virus in culture; assay type: cell-based; details: ATCC49247; Haemophilus influenza; 4 μg per disc; range of at least two experiments; read-out: Zone of inhibition H.i.
[6] = tested on: Klebsiella pneumoniae (ATCC 33495); test: MIC determination, microbroth dilution; assay type: cell-based; details: ATCC33495
[7] = tested on: Streptococcus pyogenes (ATCC 700294); test: MIC determination, microbroth dilution; assay type: cell-based; details: ATCC700294; Streptococcus pyogenes (ATCC 700294); read-out: MIC S. py.
[8] = tested on: Bacillus anthracis; test: microbe, parasite or virus in culture; assay type: cell-based; details: read-out: MIC B.a.
[9] = tested on: Neisseria meningitides (ATCC 13077); test: Disc diffusion assay; assay type: cell-based; details: ATCC13077, 4 μg per disc, read-out: Zone of inhibition N.m.
[10] = tested on: Yersinia pestis; test: microbe, parasite or virus in culture; assay type: cell-based; details: read-out: MIC Y.p.
[11] = tested on: Escherichia coli (ATCC 700926); test: MIC determination, microbroth dilution; assay type: cell-based; details: ATCC700926; Escherichia coli (ATCC 700926); read-out: MIC E.c.
[12] = tested on: Staphylococcus aureus (ATCC 29213); test: MIC determination, microbroth dilution; assay type: cell-based; details: ATCC29213; Staphylococcus aureus (ATCC 29213); read-out: MIC S.a.
[13] = tested on: live vaccine strain (LVS) of Francisella tularensis; test: microbe, parasite or virus in culture; assay type: cell-based; details: Francisella tularensis
[14] = tested on: Legionella pneumophila (ATCC 33153); test: microbe, parasite or virus in culture; assay type: cell-based; details: ATCC33153, 72 h, read-out: Zone of inhibition L.p.
[15] = tested on: Pseudomonas aeruginosa (PA01); test: MIC determination, microbroth dilution; assay type: cell-based
[16] = tested on: Proteus vulgaris (ATCC 33420); test: MIC determination, microbroth dilution; assay type: cell-based; details: ATCC33420
[17] = tested on: Bacillus anthracis, Sterne 34F2; test: microbe, parasite or virus in culture; assay type: cell-based; details: STERNE34F2, read-out: MIC B.a.
[18] = tested on: Stenotrophomonas maltophilia (ATCC 13637); test: MIC determination, microbroth dilution; assay type: cell-based; details: ATCC13637; Stenotrophomonas maltophilia (ATCC 13637); read-out: MIC S.m.
[19] = tested on: Neisseria gonorrhoeae (ATCC 49226); test: Agar MIC determination (Alamar Blue); assay type: cell-based; details: ATCC49226, agar MIC, read-out: MIC N.g.
[20] = tested on: Listeria monocytogenes; test: MIC determination (Table 6); assay type: cell-based
[21] = tested on: acinetobacter baumannii (ATCC 19606); test: MIC determination, microbroth dilution; assay type: cell-based; details: ATCC19606
[22] = tested on: M. tuberculosis clinical isolates; test: microbe, parasite or virus in culture; assay type: cell-based; details: Mycobacterium tuberculosis, H37RV, read-out: MIC H37Rv
[23] = tested on: Bacillus subtilis (ATCC 23857); test: MIC determination, microbroth dilution; assay type: cell-based; details: ATCC23857; Bacillus subtilis (ATCC 23857); read-out: MIC B.s.
[24] = tested on: Streptococcus pneumoniae clinical isolates representing several serotypes; test: MIC determination, Streptococcus pneumoniae panel of clinical isolates (Table 7); assay type: cell-based; details: Streptococcus pneumoniae
[25] = tested on: Neisseria gonorrhoeae (ATCC 49226); test: Disc diffusion assay; assay type: cell-based; details: ATCC49226, 4 μg per disc, read-out: Zone of inhibition N.g.
[26] = tested on: Proteus mirabilis (ATCC 25933); test: MIC determination, microbroth dilution; assay type: cell-based; details: ATCC25933
[27] = tested on: Burkholderia cepacia (ATCC 25416); test: MIC determination, microbroth dilution; assay type: cell-based; details: Burkholderia cepacia
[28] = tested on: E. coli K12 ΔtolC; test: microbe, parasite or virus in culture; assay type: cell-based; details: Escherichia coli, read-out: MIC E.c. Δtolc
[29] = tested on: S. pneumoniae; test: Resistance frequency determination and cross resistance of spontaneous mutants; assay type: cell-based, Streptococcus pneumoniae; details: cross resistance testing of 2 mutants
[30] = Streptococcus pneumoniae (R6), read-out: MIC S. pn.
[31] = Streptococcus pneumoniae, S. pneumoniae R6, Drug Susceptible, read-out: MIC R6
[32] = BAA1407, S. pneumoniae BAA-1407, Macrolide Resistant, read-out: MIC BAA-1407
[33] = S. pneumoniae A66.1x, Drug Susceptible, read-out: MIC A66.1x
[34] = S. pneumoniae BHN97x, Drug Susceptible, read-out: MIC BHN97x
[35] = S. pneumoniae D39X, Drug Susceptible, read-out: MIC D39X
[36] = S. pneumoniae Daw7, PenG Resistant, read-out: MIC Daw7
[37] = S. pneumoniae Daw8, PenG Resistant, read-out: MIC Daw8
[38] = S. pneumoniae Daw9, PenG Resistant, read-out: MIC Daw9
[39] = S. pneumoniae Daw62, PenG Resistant, read-out: MIC Daw62
[40] = S. pneumoniae Daw64, PenG Resistant, read-out: MIC Daw64
[41] = S. pneumoniae OVA6, Macrolide Resistant, read-out: MIC OVA6
[42] = S. pneumoniae T4X, Drug Susceptible, read-out: MIC T4X
[43] = ATCC25416, read-out: MIC B.c., Burkholderia cepacia (ATCC 25416)
[44] = ATCC25416, read-out: MIC B.c., Burkholderia cepacia, Table 6
[45] = ATCC33186, Enterococcus faecalis (ATCC 33186), read-out: MIC E.f.

| Compound | MIC [1] [µg/mL] | MIC [2, 30] [µg/mL] | MIC [2, 31] [µg/mL] | zone of inhibition at 4 µg/disc [5] [mm] | MIC [6] [µg/mL] | MIC [7] [µg/mL] | MIC [8] [µg/mL] | zone of inhibition at 4 µg/disc [9] [mm] | MIC [10] [µg/mL] | MIC [11] [µg/mL] | MIC [12] [µg/mL] | MIC ([13]; read-out: MIC F.t.) [µg/mL] | zone of inhibition at 4 µg/disc [14] [mm] | MIC [15] [µg/mL] | MIC [16] [µg/mL] | MIC [17] [µg/mL] | MIC [18] [µg/mL] | MIC [19] [µg/mL] | MIC [20] [µg/mL] | MIC [21] [µg/mL] | also measured |
| --- | --- | --- | --- | --- | --- | --- | --- | --- | --- | --- | --- | --- | --- | --- | --- | --- | --- | --- | --- | --- | --- |
| CCc1ccc(CNC[C@]2(O)C[C@@H](C)O[C@H]3O[C@@H]4[C@@H](O)[C@H](NC)[C@H](O)[C@H](NC)[C@H]4O[C@]32O)cc1 [compound 3, 3′-(R)-3′-[(4-ethyl)benzylaminomethyl)]dihydrospectinomycin Trihydrochloride] | 3.1 to 6.3 | 1.6 to 3.1 | 3.1 | 15 to 17 | 100 to 200 | 1.6 to 3.1 | 12.5 to 25 | 18 | > 200 | 12.5 to 25 | 50 | 1.6 to 3.1 | 28 to 40 | 100 to 200 | 25 to 50 | 12.5 to 25 | 12.5 | 12.5 | 6.3 | 200 | MIC ([3]; Enterococcus faecalis, ATCC33186, read-out: MIC E.f.): 12.5 to 25 µg/mL; MIC ([4]; Staphylococcus aureus): 12.5 to 25 µg/mL; MIC [22]: 25 µg/mL; MIC [23]: 3.1 to 6.3 µg/mL; MIC [24, 32]: 6.3 µg/mL; MIC [24, 33]: 1.6 µg/mL; MIC [24, 34]: 3.1 µg/mL; MIC [24, 35]: 1.6 µg/mL; MIC [24, 36]: 6.3 µg/mL; MIC [24, 37]: 3.1 µg/mL; MIC [24, 38]: 3.1 µg/mL; MIC [24, 39]: 6.3 µg/mL; MIC [24, 40]: 6.3 µg/mL; MIC [24, 41]: 6.3 µg/mL; MIC [24, 42]: 3.1 µg/mL; zone of inhibition at 4 µg/disc [25]: 16 mm; MIC [26]: 100 to 200 µg/mL; MIC [27, 43]: > 200 µg/mL; MIC [27, 44]: > 200 µg/mL; MIC [28]: 6.3 µg/mL |
| CN[C@@H]1[C@H](O)[C@H](NC)[C@H]2O[C@]3(O)[C@H](O[C@@H]2[C@H]1O)O[C@H](C)C[C@@]3(O)CNCc1ccc(OC(F)(F)F)cc1 [compound 11, 3′-(R)-3′-[(4-trifluoromethoxyl)benzylaminomethyl)]dihydrospectinomycin Trihydrochloride] | 6.3 | 3.1 | 3.1 | 16 | > 200 | 1.6 | 100 to 200 | 18 to 19 | 200 | 25 | 100 | 1.6 to 3.1 | 21 | 100 to 200 | > 200 | 100 to 200 | 50 to 100 | 12.5 | 12.5 to 25 | > 200 | MIC [3, 45]: 25 to 50 µg/mL; MIC ([4]; Staphylococcus aureus (NRS70)): 100 to 200 µg/mL; MIC [13]: 1.6 µg/mL; MIC [22]: 50 µg/mL; MIC [23]: 100 µg/mL; MIC [24, 32]: 6.3 µg/mL; MIC [24, 36]: 3.1 µg/mL; MIC [24, 37]: 1.6 µg/mL; MIC [24, 38]: 1.6 µg/mL; MIC [24, 39]: 1.6 µg/mL; MIC [24, 40]: 3.1 µg/mL; MIC [24, 41]: 6.3 µg/mL; MIC [24, 42]: 0.8 µg/mL; zone of inhibition at 4 µg/disc [25]: 16 to 20 mm; MIC [26]: > 200 µg/mL; MIC [27, 43]: > 200 µg/mL; MIC [27, 44]: > 200 µg/mL; MIC [28]: 12.5 µg/mL |
| CC[C@H]1OC(=O)[C@H](C)[C@@H](O[C@H]2C[C@@](C)(OC)[C@@H](O)[C@H](C)O2)[C@H](C)[C@@H](O[C@@H]2O[C@H](C)C[C@H](N(C)C)[C@H]2O)[C@](C)(O)C[C@@H](C)C(=O)[C@H](C)[C@@H](O)[C@]1(C)O [erythromycin] |  |  |  |  |  |  |  |  |  |  |  |  |  |  |  |  |  |  |  |  | susceptibility of mutants resistant to 2 [29]: susceptible |
| CN[C@@H]1[C@H](O)[C@H](NC)[C@H]2O[C@]3(O)[C@H](O[C@@H]2[C@H]1O)O[C@H](C)C[C@@]3(O)CNCc1ccccc1 [compound 1, 3′-(R)-3′-(benzylaminomethyl)dihydrospectinomycin Trihydrochloride] | 6.3 | 6.3 to 12.5 | 6.3 | 16 | > 200 | 3.1 to 6.3 | 50 | 16 to 22 | 100 to 200 | 100 | 50 | 3.1 | 36 to 40 | > 200 | 200 | 50 | 25 | 100 | 25 | > 200 | MIC [3, 45]: 25 µg/mL; MIC ([4]; Staphylococcus aureus (NRS70)): 50 to 100 µg/mL; MIC [22]: 25 µg/mL; MIC [23]: 3.1 µg/mL; MIC [24, 32]: 12.5 µg/mL; MIC [24, 33]: 3.1 µg/mL; MIC [24, 34]: 3.1 µg/mL; MIC [24, 35]: 3.1 µg/mL; MIC [24, 36]: 6.3 µg/mL; MIC [24, 37]: 6.3 µg/mL; MIC [24, 38]: 6.3 µg/mL; MIC [24, 39]: 6.3 µg/mL; MIC [24, 40]: 6.3 µg/mL; MIC [24, 41]: 6.3 µg/mL; MIC [24, 42]: 6.3 µg/mL; zone of inhibition at 4 µg/disc [25]: 16 mm; MIC [26]: > 200 µg/mL; MIC [27, 43]: ≥ 200 µg/mL; MIC [27, 44]: ≥ 200 µg/mL; MIC [28]: 25 µg/mL |

— patent US10266544B2, “Aryl substituted aminomethyl spectinomycin analogs as antibacterial agents” (ST. JUDE CHILDREN'S RESEARCH HOSPITAL, INC., priority 2013, dated 2019)
